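Five concentrations, 48 hours, 96-well plates. Here, GI50 denotes the concentration required for 50% inhibition of growth. At the TGI there is no net growth.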
What was measured:
Assay in all cases: NCI tumour cell line growth inhibition, 48 h
A498 renal = tested on: A498 renal
NCI-H460 lung = tested on: NCI-H460 lung
OVCAR-3 ovarian = tested on: OVCAR-3 ovarian
HL-60(TB) leukemia = tested on: HL-60(TB) leukemia
TK-10 renal = tested on: TK-10 renal
SN12C renal = tested on: SN12C renal
RPMI-8226 leukemia = tested on: RPMI-8226 leukemia
M14 melanoma = tested on: M14 melanoma
OVCAR-8 ovarian = tested on: OVCAR-8 ovarian
MALME-3M melanoma = tested on: MALME-3M melanoma

| SMILES | TGI (A498 renal) [µM] | TGI (NCI-H460 lung) [µM] | TGI (OVCAR-3 ovarian) [µM] | TGI (HL-60(TB) leukemia) [µM] | TGI (TK-10 renal) [µM] | TGI (SN12C renal) [µM] | TGI (RPMI-8226 leukemia) [µM] | TGI (M14 melanoma) [µM] | TGI (OVCAR-8 ovarian) [µM] | TGI (MALME-3M melanoma) [µM] | GI50 (A498 renal) [µM] | GI50 (NCI-H460 lung) [µM] | GI50 (OVCAR-3 ovarian) [µM] | GI50 (HL-60(TB) leukemia) [µM] | GI50 (TK-10 renal) [µM] | GI50 (SN12C renal) [µM] | GI50 (RPMI-8226 leukemia) [µM] | GI50 (M14 melanoma) [µM] | GI50 (OVCAR-8 ovarian) [µM] | GI50 (MALME-3M melanoma) [µM] |
| --- | --- | --- | --- | --- | --- | --- | --- | --- | --- | --- | --- | --- | --- | --- | --- | --- | --- | --- | --- | --- |
| O=C(Nc1cc(C(F)(F)F)ccc1Cl)C(=O)C(C(=O)c1ccc2ccccc2c1)C1OC(=O)c2ccccc21 (centres undefined) | 20.8 | 20.7 | > 50.7 | 37.3 | 40.3 | 21 | > 54.5 | 25 | 24.8 | 27.4 | – | – | – | – | – | – | – | – | – | – |
| COC1OC(C)C(OC(=O)C(C)(C)C)C(C)(O)C1O (centres undefined) | > 100 | > 100 | > 100 | > 100 | > 100 | > 100 | > 100 | > 100 | > 100 | > 100 | – | – | – | – | – | – | – | – | – | – |
| Fc1cccc(F)c1C1SCc2nc3ccccc3n21 (centres undefined) | > 100 | > 100 | > 100 | 82.7 | > 100 | > 100 | > 100 | > 100 | > 100 | > 100 | – | – | – | – | – | – | – | – | – | – |
| COc1ccc2[nH]cc(/C=C3\C(=O)Nc4ccccc43)c2c1 | 15.1 | 18.7 | 35.9 | 4.26 | 31.3 | 39.9 | 6.84 | 14.2 | 21.8 | 49.1 | 3.15 | 4.09 | 9.62 | 1.78 | 7.98 | 7.37 | 2.35 | 2.99 | 7.02 | 11.2 |
| CN/N=C(\C)CC(=O)Nc1cccc(Cl)c1C | > 100 | > 100 | > 100 | > 100 | > 100 | > 100 | > 100 | > 100 | > 100 | > 100 | – | – | – | – | – | – | – | – | – | – |
| O=C(c1cccs1)c1c(C(F)(F)F)n([O-])c2cc(F)c(F)cc2[n+]1=O | 3.79 | 12.5 | 4.14 | 5.65 | 3.99 | 3.59 | 3.51 | 6.6 | 5.16 | 1.52 | 1.46 | 2.03 | 1.66 | 0.904 | 1.36 | 1.38 | 0.501 | 2.48 | 2.77 | 0.79 |
| O=C1c2cccc3c(N4CCN(c5ccc6c7c(cccc57)C(=O)N(CCN5CCNCC5)C6=O)CC4)ccc(c23)C(=O)N1CCN1CCNCC1 | 36.4 | 80 | 42.1 | 20.6 | 33.4 | 23.2 | 8.55 | 37.2 | 41.5 | 40 | 17.3 | 12.5 | 20.3 | 4.19 | 14.7 | 7.46 | 2.45 | 15 | 10.9 | 17.5 |
| CC1CC(=O)C(C(O)CC2CC(=O)N(c3ccccc3)C(=O)C2)C(C)C1 (centres undefined) | > 100 | > 100 | > 100 | > 100 | > 100 | > 100 | > 100 | > 100 | > 100 | > 100 | – | – | – | – | – | – | – | – | – | – |
| COc1ccc(-c2c(N)[n+]([O-])c3cc(C)c(C)cc3[n+]2[O-])cc1OC | > 100 | > 100 | > 100 | > 100 | > 100 | > 100 | > 100 | > 100 | > 100 | > 100 | – | – | – | – | – | – | – | – | – | – |
| CCCCCCCCCCCCCCCCCC(=O)NCCCNCCCNC(=O)CCCCCCCCCCCCCCCCC | > 100 | > 100 | > 100 | > 100 | > 100 | > 100 | > 100 | > 100 | > 100 | > 100 | – | – | – | – | – | – | – | – | – | – |
| N#CC1=C(N)Oc2c(sc3c(F)cccc23)C1c1ccc([N+](=O)[O-])cc1 (centres undefined) | 0.691 | 1.17 | 1.06 | 0.806 | 3.12 | 1.31 | 1.45 | 0.645 | 1.78 | 2.17 | 0.0219 | 0.253 | 0.185 | 0.212 | 0.609 | 0.276 | 0.215 | 0.111 | 0.258 | 0.36 |
| Cc1cc(N2CCN(C)CC2)nc(NC2CCCC(Nc3ccnc4cc(Cl)ccc34)C2)n1 (centres undefined) | 15.1 | 5.07 | 5.75 | 4.09 | 3.63 | 12.2 | 4.95 | 3.46 | 15.5 | 3.45 | 4.31 | 2.16 | 2.25 | 2.09 | 1.81 | 3.09 | 1.68 | 1.7 | 3.75 | 1.82 |
| Nc1cc(C(F)F)c(-c2nc(N3[C@@H]4CC[C@H]3COC4)nc(N3[C@@H]4CC[C@H]3COC4)n2)cn1 | 0.232 | > 100 | > 100 | > 100 | 3.22 | > 100 | – | 23.9 | > 100 | 0.877 | 0.0367 | 0.306 | 0.435 | 2.29 | 0.156 | 0.342 | 0.237 | 0.295 | 0.465 | 0.0713 |
| O=C1OC(c2ccc([N+](=O)[O-])cc2)=N/C1=C\c1ccc(O)cc1 | > 100 | > 100 | > 100 | > 100 | > 100 | > 100 | > 100 | > 100 | > 100 | > 100 | – | – | – | – | – | – | – | – | – | – |
| NC(C(=O)O)C(N)C(=O)O (centres undefined) | > 100 | > 100 | > 100 | > 100 | > 100 | > 100 | > 100 | > 100 | > 100 | > 100 | – | – | – | – | – | – | – | – | – | – |
| O=C(O)C1Cc2nc[nH]c2CN1 (centres undefined) | > 100 | > 100 | > 100 | > 100 | > 100 | > 100 | > 100 | > 100 | > 100 | > 100 | – | – | – | – | – | – | – | – | – | – |
| COc1cc(/C=C2\C(=O)N(c3c(Cl)cccc3Cl)c3ccccc32)cc(OC)c1O | 16.1 | 4.58 | 7.24 | 8.74 | 15.6 | 17.6 | 11.7 | 15.6 | 19.8 | 16 | 5.59 | 0.342 | 0.905 | 1.01 | 1.21 | 1.01 | 0.718 | 1.03 | 0.442 | 0.537 |
